In ChEMBL document CHEMBL3885881, “DrugMatrix”:
Where “and” joins values, the source holds several entries; their conditions need not be identical. Equal values may be shown once.

Species: Rattus norvegicus
Experiment: DrugMatrix - Regimen: Daily Repeat
Format: toxicity, organism-based, Sprague-Dawley
Design: regimen Daily Repeat, gender Male, age 6-8 weeks
Conditions: in vivo, ip, route intraperitoneal, vehicle 100 % SALINE; for ABSOLUTE BASOPHIL / ABSOLUTE EOSINOPHIL / ABSOLUTE LYMPHOCYTE / ABSOLUTE MONOCYTE / ABSOLUTE SEGMENTED NEUTROPHIL / BASOPHIL / EOSINOPHIL / ERYTHROCYTE COUNT / HEMATOCRIT / HEMOGLOBIN / LEUKOCYTE COUNT / LYMPHOCYTE / MEAN CORPUSCULAR HEMOGLOBIN / MEAN CORPUSCULAR HEMOGLOBIN CONCENTRATION / MEAN CORPUSCULAR VOLUME / MONOCYTE / NEUTROPHIL / PLATELET COUNT: tissue Blood; for ALANINE AMINOTRANSFERASE / ALBUMIN / ALKALINE PHOSPHATASE / ASPARTATE AMINOTRANSFERASE / BLOOD UREA NITROGEN / CARBON DIOXIDE / CHLORIDE / CHOLESTEROL / CREATINE PHOSPHOKINASE / CREATININE / GLUCOSE / LACTATE DEHYDROGENASE / LIPASE / PHOSPHORUS / POTASSIUM / SODIUM / TOTAL BILIRUBIN / TOTAL PROTEIN / URIC ACID: tissue Plasma
[1] = 0 mg/kg, 120 h, dose level Control, time 5 day
[2] = 0 mg/kg, […], dose level Control, time 14 day
[3] = 0 mg/kg, […], dose level Control, time 28 day
[4] = 40 mg/kg, 120 h, dose level High, time 5 day
[5] = 40 mg/kg, […], dose level High, time 14 day
[6] = 40 mg/kg, […], dose level High, time 28 day

## CCN[C@@H]1C[C@H](N)[C@@H](O[C@H]2OC(CN)=CC[C@H]2N)[C@H](O)[C@H]1O[C@H]1OC[C@](C)(O)[C@H](NC)[C@H]1O [NETILMICIN]
[1]
  ABSOLUTE BASOPHIL: 32 cells/µL
  ABSOLUTE EOSINOPHIL: 110 cells/µL
  ABSOLUTE LYMPHOCYTE: 6630 cells/µL
  ABSOLUTE MONOCYTE: 140 cells/µL
  ABSOLUTE SEGMENTED NEUTROPHIL: 1170 cells/µL
  BASOPHIL: 0.38% and 0.35%
  EOSINOPHIL: 1.28% and 0.62%
  ERYTHROCYTE COUNT: 7.45 x10E6/uL and 7.26 x10E6/uL
  HEMATOCRIT: 45.74% and 47.97%
  HEMOGLOBIN: 14.72 G/DL and 15.38 G/DL
  LEUKOCYTE COUNT: 8.11 x10E3/uL and 8.68 x10E3/uL
  LYMPHOCYTE: 81.3% and 86.77%
  MEAN CORPUSCULAR HEMOGLOBIN: 19.76 pg and 21.18 pg
  MEAN CORPUSCULAR HEMOGLOBIN CONCENTRATION: 32.16 G/DL and 32.05 G/DL
  MEAN CORPUSCULAR VOLUME: 61.38 fL and 66.15 fL
  MONOCYTE: 1.76% and 1.57%
  NEUTROPHIL: 14.9% and 9.53%
  PLATELET COUNT: 1322.4 x10E3/uL and 1786 x10E3/uL
  ALANINE AMINOTRANSFERASE: 25.8 u/L and 20.5 u/L
  ALBUMIN: 3.64 G/DL and 4.35 G/DL
  ALKALINE PHOSPHATASE: 233.6 u/L and 300 u/L
  ASPARTATE AMINOTRANSFERASE: 81.4 u/L and 86.75 u/L
  BLOOD UREA NITROGEN: 14.4 mg/dL and 17 mg/dL
  CARBON DIOXIDE: 29 mmol/L
  CHLORIDE: 105.6 MEQ/L and 106.25 MEQ/L
  CHOLESTEROL: 69.2 mg/dL and 51.25 mg/dL
  CREATINE PHOSPHOKINASE: 384.75 u/L
  CREATININE: 0.56 mg/dL and 0.47 mg/dL
  GLUCOSE: 125.4 mg/dL and 128.75 mg/dL
  LACTATE DEHYDROGENASE: 105.4 u/L and 145 u/L
  LIPASE: 22.4 u/L and 13.25 u/L
  PHOSPHORUS: 11.48 mg/dL and 11.8 mg/dL
  POTASSIUM: 5.52 MEQ/L and 6.58 MEQ/L
  SODIUM: 147 MEQ/L and 151 MEQ/L
  TOTAL BILIRUBIN: 0.2 mg/dL and 0.33 mg/dL
  TOTAL PROTEIN: 6.1 G/DL and 6.53 G/DL
  URIC ACID: 1.06 mg/dL and 1.95 mg/dL
[2]
  ABSOLUTE BASOPHIL: 130 cells/µL
  ABSOLUTE EOSINOPHIL: 140 cells/µL
  ABSOLUTE LYMPHOCYTE: 13500 cells/µL
  ABSOLUTE MONOCYTE: 400 cells/µL
  ABSOLUTE SEGMENTED NEUTROPHIL: 2330 cells/µL
  HEMATOCRIT: 45.98%
  CARBON DIOXIDE: 25 mmol/L
[3]
  ABSOLUTE BASOPHIL: 91 cells/µL
  ABSOLUTE EOSINOPHIL: 110 cells/µL
  ABSOLUTE LYMPHOCYTE: 9910 cells/µL
  ABSOLUTE MONOCYTE: 210 cells/µL
  ABSOLUTE SEGMENTED NEUTROPHIL: 1560 cells/µL
  BASOPHIL: 0.77%
  EOSINOPHIL: 0.92%
  ERYTHROCYTE COUNT: 8.21 x10E6/uL
  HEMATOCRIT: 47.53%
  HEMOGLOBIN: 15.65 G/DL
  LEUKOCYTE COUNT: 11.91 x10E3/uL
  LYMPHOCYTE: 83.34%
  MEAN CORPUSCULAR HEMOGLOBIN: 19.07 pg
  MEAN CORPUSCULAR HEMOGLOBIN CONCENTRATION: 32.93 G/DL
  MEAN CORPUSCULAR VOLUME: 57.9 fL
  MONOCYTE: 1.68%
  NEUTROPHIL: 12.97%
  PLATELET COUNT: 1323.8 x10E3/uL
  ALANINE AMINOTRANSFERASE: 30 u/L
  ALBUMIN: 3.71 G/DL
  ALKALINE PHOSPHATASE: 186.8 u/L
  ASPARTATE AMINOTRANSFERASE: 78.2 u/L
  BLOOD UREA NITROGEN: 14.2 mg/dL
  CHLORIDE: 105.4 MEQ/L
  CHOLESTEROL: 44.9 mg/dL
  CREATINE PHOSPHOKINASE: 334.3 u/L
  CREATININE: 0.6 mg/dL
  GLUCOSE: 147.2 mg/dL
  LACTATE DEHYDROGENASE: 123.1 u/L
  LIPASE: 9.6 u/L
  PHOSPHORUS: 10.01 mg/dL
  POTASSIUM: 6.57 MEQ/L
  SODIUM: 149.5 MEQ/L
  TOTAL BILIRUBIN: 0.21 mg/dL
  TOTAL PROTEIN: 6.66 G/DL
  URIC ACID: 1.26 mg/dL
[4]
  ABSOLUTE BASOPHIL: 100 cells/µL
  ABSOLUTE EOSINOPHIL: 100 cells/µL
  ABSOLUTE LYMPHOCYTE: 9410 cells/µL
  ABSOLUTE MONOCYTE: 270 cells/µL
  ABSOLUTE SEGMENTED NEUTROPHIL: 2070 cells/µL
  BASOPHIL: 0.82% and 0.23%
  EOSINOPHIL: 0.84% and 0.53%
  ERYTHROCYTE COUNT: 7.28 x10E6/uL and 7.2 x10E6/uL
  HEMATOCRIT: 44.78% and 47.4%
  HEMOGLOBIN: 14.6 G/DL and 14.93 G/DL
  LEUKOCYTE COUNT: 12 x10E3/uL and 6.78 x10E3/uL
  LYMPHOCYTE: 78.86% and 87.63%
  MEAN CORPUSCULAR HEMOGLOBIN: 20.02 pg and 20.77 pg
  MEAN CORPUSCULAR HEMOGLOBIN CONCENTRATION: 32.56 G/DL and 31.5 G/DL
  MEAN CORPUSCULAR VOLUME: 61.44 fL and 65.9 fL
  MONOCYTE: 2.18% and 1.53%
  NEUTROPHIL: 16.76% and 9.17%
  PLATELET COUNT: 1295.4 x10E3/uL and 1697.67 x10E3/uL
  ALANINE AMINOTRANSFERASE: 28.4 u/L and 20.25 u/L
  ALBUMIN: 3.44 G/DL and 4.28 G/DL
  ALKALINE PHOSPHATASE: 235.6 u/L and 305.25 u/L
  ASPARTATE AMINOTRANSFERASE: 91.8 u/L and 87.25 u/L
  BLOOD UREA NITROGEN: 12 mg/dL and 14.25 mg/dL
  CARBON DIOXIDE: 24.75 mmol/L
  CHLORIDE: 108.2 MEQ/L and 108.25 MEQ/L
  CHOLESTEROL: 53.8 mg/dL and 53 mg/dL
  CREATINE PHOSPHOKINASE: 194.6 u/L and 310.75 u/L
  CREATININE: 0.5 mg/dL and 0.47 mg/dL
  GLUCOSE: 137 mg/dL and 119.5 mg/dL
  LACTATE DEHYDROGENASE: 83.75 u/L and 121.25 u/L
  LIPASE: 16 u/L and 7 u/L
  PHOSPHORUS: 10.04 mg/dL and 12.5 mg/dL
  POTASSIUM: 6.52 MEQ/L and 5.8 MEQ/L
  SODIUM: 151.2 MEQ/L and 152.75 MEQ/L
  TOTAL BILIRUBIN: 0.12 mg/dL and 0.28 mg/dL
  TOTAL PROTEIN: 5.86 G/DL and 6.35 G/DL
  URIC ACID: 1.12 mg/dL and 2.02 mg/dL
[5]
  ABSOLUTE BASOPHIL: 76 cells/µL
  ABSOLUTE EOSINOPHIL: 100 cells/µL
  ABSOLUTE LYMPHOCYTE: 7150 cells/µL
  ABSOLUTE MONOCYTE: 160 cells/µL
  ABSOLUTE SEGMENTED NEUTROPHIL: 980 cells/µL
  CARBON DIOXIDE: 27 mmol/L
[6]
  ABSOLUTE BASOPHIL: 110 cells/µL
  ABSOLUTE EOSINOPHIL: 110 cells/µL
  ABSOLUTE LYMPHOCYTE: 11000 cells/µL
  ABSOLUTE MONOCYTE: 220 cells/µL
  ABSOLUTE SEGMENTED NEUTROPHIL: 1680 cells/µL
  BASOPHIL: 0.84%
  EOSINOPHIL: 0.81%
  ERYTHROCYTE COUNT: 8.07 x10E6/uL
  HEMATOCRIT: 45.66%
  HEMOGLOBIN: 15.06 G/DL
  LEUKOCYTE COUNT: 13.21 x10E3/uL
  LYMPHOCYTE: 83.38%
  MEAN CORPUSCULAR HEMOGLOBIN: 18.66 pg
  MEAN CORPUSCULAR HEMOGLOBIN CONCENTRATION: 32.99 G/DL
  MEAN CORPUSCULAR VOLUME: 56.56 fL
  MONOCYTE: 1.71%
  NEUTROPHIL: 12.78%
  PLATELET COUNT: 1402.4 x10E3/uL
  ALANINE AMINOTRANSFERASE: 27.9 u/L
  ALBUMIN: 3.58 G/DL
  ALKALINE PHOSPHATASE: 144.2 u/L
  ASPARTATE AMINOTRANSFERASE: 86.4 u/L
  BLOOD UREA NITROGEN: 16.3 mg/dL
  CHLORIDE: 108.5 MEQ/L
  CHOLESTEROL: 59.4 mg/dL
  CREATINE PHOSPHOKINASE: 139.4 u/L
  CREATININE: 0.7 mg/dL
  GLUCOSE: 120.4 mg/dL
  LACTATE DEHYDROGENASE: 85.6 u/L
  LIPASE: 22.9 u/L
  PHOSPHORUS: 8.66 mg/dL
  POTASSIUM: 5.83 MEQ/L
